Reference: paper PMC10620162, “Structure—yeast α-glucosidase inhibitory activity relationship of 9-O-berberrubine carboxylates” (Scientific Reports, 2023)
Like-named read-outs stand apart in the source and are kept apart here.

Target: T1, yeast α-glucosidase (Saccharomyces cerevisiae, UniProt P53341)
T1 construct: purchased Sigma Aldrich
Assay: biochemical
Conditions: for inhibition at 50 µM: read-out: Inhibition at 50 μM (%), 50 μM
Procedure: Berberrubine derivatives will be assayed for yeast α-glucosidase inhibitory activity. The protocol described by Ramadhan et al. will be used[37]. Briefly, yeast α-glucosidase (0.1 U/mL) and substrate (1 mM p-nitrophenyl-α-D-glucopyranoside) were dissolved in 0.1 M phosphate buffer (pH 6.9). A 10 μL test sample was pre-incubated with α-glucosidase (40 μL) at 37 °C for 10 min. A substrate solution (50 μL) was then added to the reaction mixture and incubated at 37 °C for an additional 20 min, and terminated by adding 1 M Na2CO3 solution (100 μL). […] The percentage inhibition of activity was calculated as follows: % Inhibition = [(A0 − A1)/A0] × 100, where: A0 is the absorbance without the sample; A1 is the absorbance with the sample. The IC50 value was deduced from the plot of % inhibition versus the concentration of the test sample.

T1 sequence (P53341 whole entry): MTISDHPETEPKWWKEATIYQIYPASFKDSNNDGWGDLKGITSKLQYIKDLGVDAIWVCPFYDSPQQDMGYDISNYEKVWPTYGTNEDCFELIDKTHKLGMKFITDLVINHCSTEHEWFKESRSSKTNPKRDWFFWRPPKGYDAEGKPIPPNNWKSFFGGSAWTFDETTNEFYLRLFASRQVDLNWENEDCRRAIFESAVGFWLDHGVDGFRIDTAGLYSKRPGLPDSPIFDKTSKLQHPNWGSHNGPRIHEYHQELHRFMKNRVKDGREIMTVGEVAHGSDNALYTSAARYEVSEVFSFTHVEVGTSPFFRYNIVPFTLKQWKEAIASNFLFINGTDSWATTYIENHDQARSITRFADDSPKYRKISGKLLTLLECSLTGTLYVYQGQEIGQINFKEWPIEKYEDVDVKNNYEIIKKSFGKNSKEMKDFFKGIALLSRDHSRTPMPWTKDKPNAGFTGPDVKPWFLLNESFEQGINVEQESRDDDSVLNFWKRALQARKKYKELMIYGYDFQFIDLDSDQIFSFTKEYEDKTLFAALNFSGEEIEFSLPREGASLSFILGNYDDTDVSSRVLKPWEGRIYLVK

Compound	inhibition at 50 µM	IC50	Inhibition at 50 μM (%) (50 μM)	IC50 (read-out: IC50)
COc1ccc2cc3[n+](cc2c1O)CCc1cc2c(cc1-3)OCO2 [BBRB, 9-hydroxy-10-methoxy-5,6-dihydro-[1,3]dioxolo[4,5-g]isoquinolino[3,2-a]isoquinolin-7-ium chloride, reference compound]	< 0%			
COc1ccc2cc3[n+](cc2c1OC(=O)c1ccccc1)CCc1cc2c(cc1-3)OCO2.[Cl-] [Compound 1, 9-(benzoyloxy)-10-methoxy-5,6-dihydro-[1,3]dioxolo[4,5-g]isoquinolino[3,2-a]isoquinolin-7-ium chloride]	58%	25.3 ± 2.63 µM	57.67%	
COc1ccccc1C(=O)Oc1c(OC)ccc2cc3[n+](cc12)CCc1cc2c(cc1-3)OCO2 [Compound 2, 10-methoxy-9-((2-methoxybenzoyl)oxy)-5,6-dihydro-[1,3]dioxolo[4,5-g]isoquinolino[3,2-a]isoquinolin-7-ium chloride]	79.1%	19.5 ± 1.62 µM		
COc1cccc(C(=O)Oc2c(OC)ccc3cc4[n+](cc23)CCc2cc3c(cc2-4)OCO3)c1 [Compound 3, 10-methoxy-9-((3-methoxybenzoyl)oxy)-5,6-dihydro-[1,3]dioxolo[4,5-g]isoquinolino[3,2-a]isoquinolin-7-ium chloride]	89.7%	11.6 ± 1.19 µM		
COc1ccc(C(=O)Oc2c(OC)ccc3cc4[n+](cc23)CCc2cc3c(cc2-4)OCO3)cc1 [Compound 4, 10-methoxy-9-((4-methoxybenzoyl)oxy)-5,6-dihydro-[1,3]dioxolo[4,5-g]isoquinolino[3,2-a]isoquinolin-7-ium chloride]	80%	18.4 ± 1.31 µM		
COc1ccc2cc3[n+](cc2c1OC(=O)c1cccc(O)c1)CCc1cc2c(cc1-3)OCO2 [Compound 5, 9-((3-hydroxybenzoyl)oxy)-10-methoxy-5,6-dihydro-[1,3]dioxolo[4,5-g]isoquinolino[3,2-a]isoquinolin-7-ium chloride]	98.1%			7.51 ± 0.42 µM
COc1ccc(C(=O)Oc2c(OC)ccc3cc4[n+](cc23)CCc2cc3c(cc2-4)OCO3)cc1OC [Compound 6, 9-((3,4-dimethoxybenzoyl)oxy)-10-methoxy-5,6-dihydro-[1,3]dioxolo[4,5-g]isoquinolino[3,2-a]isoquinolin-7-ium chloride]	73.9%	19.1 ± 1.01 µM		
COc1ccc2cc3[n+](cc2c1OC(=O)c1ccc2c(c1)OCO2)CCc1cc2c(cc1-3)OCO2 [Compound 7, 9-((benzo[d][1,3]dioxole-5-carbonyl)oxy)-10-methoxy-5,6-dihydro-[1,3]dioxolo[4,5-g]isoquinolino[3,2-a]isoquinolin-7-ium chloride]	99.7%			6.44 ± 0.5 µM
COc1cc(C(=O)Oc2c(OC)ccc3cc4[n+](cc23)CCc2cc3c(cc2-4)OCO3)cc(OC)c1OC [Compound 8, 10-methoxy-9-((3,4,5-trimethoxybenzoyl)oxy)-5,6-dihydro-[1,3]dioxolo[4,5-g]isoquinolino[3,2-a]isoquinolin-7-ium chloride]	72%	23.9 ± 1.87 µM		
COc1ccc2cc3[n+](cc2c1OC(=O)c1ccccc1Cl)CCc1cc2c(cc1-3)OCO2 [Compound 10, 9-((2-chlorobenzoyl)oxy)-10-methoxy-5,6-dihydro-[1,3]dioxolo[4,5-g]isoquinolino[3,2-a]isoquinolin-7-ium chloride]	88.5%	12.2 ± 0.82 µM		
COc1ccc2cc3[n+](cc2c1OC(=O)c1cccc(Cl)c1)CCc1cc2c(cc1-3)OCO2 [Compound 11, 9-((3-chlorobenzoyl)oxy)-10-methoxy-5,6-dihydro-[1,3]dioxolo[4,5-g]isoquinolino[3,2-a]isoquinolin-7-ium chloride]	95.5%			9.43 ± 0.8 µM
COc1ccc2cc3[n+](cc2c1OC(=O)c1ccc(Cl)cc1)CCc1cc2c(cc1-3)OCO2 [Compound 12, 9-((4-chlorobenzoyl)oxy)-10-methoxy-5,6-dihydro-[1,3]dioxolo[4,5-g]isoquinolino[3,2-a]isoquinolin-7-ium chloride]	96.5%	10.6 ± 0.6 µM		
COc1ccc2cc3[n+](cc2c1OC(=O)c1ccccc1F)CCc1cc2c(cc1-3)OCO2 [Compound 13, 9-((2-fluorobenzoyl)oxy)-10-methoxy-5,6-dihydro-[1,3]dioxolo[4,5-g]isoquinolino[3,2-a]isoquinolin-7-ium chloride]	72%	24.9 ± 1.78 µM		
COc1ccc2cc3[n+](cc2c1OC(=O)c1cccc(F)c1)CCc1cc2c(cc1-3)OCO2 [Compound 14, 9-((3-fluorobenzoyl)oxy)-10-methoxy-5,6-dihydro-[1,3]dioxolo[4,5-g]isoquinolino[3,2-a]isoquinolin-7-ium chloride]	63%	32.8 ± 1.88 µM		
COc1ccc2cc3[n+](cc2c1OC(=O)c1ccc(F)cc1)CCc1cc2c(cc1-3)OCO2 [Compound 15, 9-((4-fluorobenzoyl)oxy)-10-methoxy-5,6-dihydro-[1,3]dioxolo[4,5-g]isoquinolino[3,2-a]isoquinolin-7-ium chloride]	73.9%	21.3 ± 1.97 µM		
COc1ccc2cc3[n+](cc2c1OC(=O)c1ccccc1Br)CCc1cc2c(cc1-3)OCO2 [Compound 16, 9-((2-bromobenzoyl)oxy)-10-methoxy-5,6-dihydro-[1,3]dioxolo[4,5-g]isoquinolino[3,2-a]isoquinolin-7-ium chloride]	95.3%			6.45 ± 0.52 µM
COc1ccc2cc3[n+](cc2c1OC(=O)c1ccccc1I)CCc1cc2c(cc1-3)OCO2 [Compound 17, 9-((2-iodobenzoyl)oxy)-10-methoxy-5,6-dihydro-[1,3]dioxolo[4,5-g]isoquinolino[3,2-a]isoquinolin-7-ium chloride]	94.9%			9.24 ± 0.5 µM
COc1ccc2cc3[n+](cc2c1OC(=O)c1ccccc1C(F)(F)F)CCc1cc2c(cc1-3)OCO2 [Compound 18, 10-methoxy-9-((2-(trifluoromethyl)benzoyl)oxy)-5,6-dihydro-[1,3]dioxolo[4,5-g]isoquinolino[3,2-a]isoquinolin-7-ium chloride]	86.1%	15.7 ± 1.34 µM		
COc1ccc2cc3[n+](cc2c1OC(=O)c1ccccc1[N+](=O)[O-])CCc1cc2c(cc1-3)OCO2 [Compound 19, 10-methoxy-9-((2-nitrobenzoyl)oxy)-5,6-dihydro-[1,3]dioxolo[4,5-g]isoquinolino[3,2-a]isoquinolin-7-ium chloride]	81.6%	10.5 ± 1.03 µM		
COc1ccc2cc3[n+](cc2c1OC(=O)c1ccc(C#N)cc1)CCc1cc2c(cc1-3)OCO2 [Compound 20, 9-((4-cyanobenzoyl)oxy)-10-methoxy-5,6-dihydro-[1,3]dioxolo[4,5-g]isoquinolino[3,2-a]isoquinolin-7-ium chloride]	55.6%	26.5 ± 2.5 µM		
COc1ccc2cc3[n+](cc2c1OC(=O)c1c(Cl)cccc1Cl)CCc1cc2c(cc1-3)OCO2 [Compound 21, 9-((2,6-dichlorobenzoyl)oxy)-10-methoxy-5,6-dihydro-[1,3]dioxolo[4,5-g]isoquinolino[3,2-a]isoquinolin-7-ium chloride]	96.6%	5.86 ± 0.35 µM		
COc1ccc2cc3[n+](cc2c1OC(=O)c1ccccc1C)CCc1cc2c(cc1-3)OCO2 [Compound 22, 10-methoxy-9-((2-methylbenzoyl)oxy)-5,6-dihydro-[1,3]dioxolo[4,5-g]isoquinolino[3,2-a]isoquinolin-7-ium chloride]	90.6%	18.1 ± 0.68 µM		
COc1ccc2cc3[n+](cc2c1OC(=O)c1ccc(C)cc1)CCc1cc2c(cc1-3)OCO2 [Compound 23, 10-methoxy-9-((4-methylbenzoyl)oxy)-5,6-dihydro-[1,3]dioxolo[4,5-g]isoquinolino[3,2-a]isoquinolin-7-ium chloride]	78.9%	17.5 ± 1.11 µM		
CCc1ccc(C(=O)Oc2c(OC)ccc3cc4[n+](cc23)CCc2cc3c(cc2-4)OCO3)cc1 [Compound 24, 9-((4-ethylbenzoyl)oxy)-10-methoxy-5,6-dihydro-[1,3]dioxolo[4,5-g]isoquinolino[3,2-a]isoquinolin-7-ium chloride]	81%	12.5 ± 0.99 µM		
COc1ccc2cc3[n+](cc2c1OC(=O)c1ccc(C(C)(C)C)cc1)CCc1cc2c(cc1-3)OCO2 [Compound 25, 9-((4-(tert-butyl)benzoyl)oxy)-10-methoxy-5,6-dihydro-[1,3]dioxolo[4,5-g]isoquinolino[3,2-a]isoquinolin-7-ium chloride]	98.9%	3.53 ± 0.31 µM		
COc1ccc2cc3[n+](cc2c1OC(=O)c1cccc2ccccc12)CCc1cc2c(cc1-3)OCO2 [Compound 27, 9-((1-naphthoyl)oxy)-10-methoxy-5,6-dihydro-[1,3]dioxolo[4,5-g]isoquinolino[3,2-a]isoquinolin-7-ium chloride]	99.8%			2.67 ± 0.27 µM
COc1ccc2cc3[n+](cc2c1OC(=O)/C(C)=C/c1ccccc1)CCc1cc2c(cc1-3)OCO2 [Compound 30, (E)-10-methoxy-9-((2-methyl-3-phenylacryloyl)oxy)-5,6-dihydro-[1,3]dioxolo[4,5-g]isoquinolino[3,2-a]isoquinolin-7-ium chloride]	91.9%	10.3 ± 0.84 µM		
COc1ccc2cc3[n+](cc2c1OC(=O)/C=C/c1ccc2c(c1)OCO2)CCc1cc2c(cc1-3)OCO2 [Compound 31, (E)-9-((3-(benzo[d][1,3]dioxol-5-yl)acryloyl)oxy)-10-methoxy-5,6-dihydro-[1,3]dioxolo[4,5-g]isoquinolino[3,2-a]isoquinolin-7-ium chloride]	98.9%			4.64 ± 0.55 µM
